Assay results as given in patent US11524012B1, “Quinolone analogs and their salts, compositions, and method for their use” (Senhwa Biosciences, Inc., priority 2018, dated 2022).
pIC50: −log10 of the molar value.

Legend:
[1] = test system: DLD1 Parental; experiment: Proliferation assay (CellTiter-Glo) in isogenic cell line pair; assay type: cell-based; conditions: Homo sapiens, DLD-1
Method: (§1) Compound I was tested at different concentrations for their anti-proliferative effects using Horizon's precisely engineered isogenic cell line pairs, DLD1 and isogenic BRCA2^−/− cell lines. This study was conducted in vitro. […] The sensitivity of DLD1 Parental and BRCA2^−/− isogenic cell lines to Compound I as a single agent was also evaluated to look for evidence of synthetic lethality. The activity of Compound I was evaluated with short (48 hours) and long (6 days) endpoints using CellTiter-Glo® (Promega). Incubation times were 6 days (144 h) in the presence of Compound I. Test compounds were dissolved in NaH2PO4.
(§2) Where it was not possible to determine an IC50 because of a partial response and/or the bottom of the curve not being well defined by the data, the % Inhibition at the top concentration is reported.

[2] = test system: DLD1 BRCA2^−/−; experiment: as above; assay type: cell-based
Method: as §1, §2

For `Cc1cnc(CNC(=O)c2c(=O)c3ccc(N4CCCN(C)CC4)nc3n3c2sc2ccccc23)cn1` [Compound I, 2-(4-Methyl-[1,4]diazepan-1-yl)-5-oxo-5H-7-thia-1,11b-diaza-benzo[c]fluorene-6-carboxylic acid (5-methyl-pyrazin-2-ylmethyl)-amide], the inhibition at 10 µM ([1]; 10 μM, 48 hours, read-out: % Inhibition at the top concentration (IC50 (μM) column)) was 55%, the pIC50 ([1]; 6 days (144 hours)) was 6.35 and the “sensitivity relative to the parental line (in words)” value ([2]; 6-day proliferation assay) was “significantly more sensitive”. The “selective toxicity (in words)” value ([2]; BRCA2 knockout vs BRCA2 proficient wild type cells) was “selectively toxic to BRCA2 knockout cells”, the inhibition at 10 µM ([2]; Homo sapiens, DLD-1, 10 μM, 48 hours, read-out: % Inhibition at the top concentration (IC50 (μM) column)) was 27% and the pIC50 ([2]; Homo sapiens, DLD-1, 6 days (144 hours)) was 8.00.
